Laboratory results as given in PubChem BioAssay (NCI).
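Compound exposure: 48 hours, 5 concentrations, 96-well plates. TGI denotes the concentration required for complete inhibition of growth.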

Columns and labels:
Assay in all cases: NCI anticancer screen, dose series, 48 h
[1] = test system: 786-0 renal
[2] = test system: A498 renal
[3] = test system: A549 NSCLC
[4] = test system: ACHN renal
[5] = test system: CAKI-1 renal
[6] = test system: COLO 205 colon
[7] = test system: DU-145 prostate
[8] = test system: EKVX NSCLC
[9] = test system: HCT-116 colon
[10] = test system: HL-60(TB) leukemia
[11] = test system: HOP-62 NSCLC
[12] = test system: HOP-92 NSCLC
[13] = test system: HS 578T breast
[14] = test system: HT29 colon
[15] = test system: IGROV1 ovarian
[16] = test system: K-562 leukemia
[17] = test system: KM12 colon
[18] = test system: LOX IMVI melanoma
[19] = test system: M14 melanoma
[20] = test system: MALME-3M melanoma
[21] = test system: MCF7 breast
[22] = test system: MDA-MB-231 breast
[23] = test system: MDA-MB-435
[24] = test system: MDA-N
[25] = test system: MOLT-4 leukemia
[26] = test system: NCI-H226 lung
[27] = test system: NCI-H522 lung
[28] = test system: OVCAR-3 ovarian
[29] = test system: OVCAR-4 ovarian
[30] = test system: OVCAR-5 ovarian
[31] = test system: OVCAR-8 ovarian
[32] = test system: PC-3 prostate
[33] = test system: RPMI-8226 leukemia
[34] = test system: RXF 393 renal
[35] = test system: SF-268 CNS
[36] = test system: SF-295 CNS
[37] = test system: SF-539 CNS
[38] = test system: SK-MEL-2 melanoma
[39] = test system: SK-MEL-28 melanoma
[40] = test system: SK-MEL-5 melanoma
[41] = test system: SK-OV-3 ovarian
[42] = test system: SN12C renal
[43] = test system: SNB-19 CNS
[44] = test system: SNB-75 CNS
[45] = test system: SR leukemia
[46] = test system: SW-620 colon
[47] = test system: T-47D breast
[48] = test system: TK-10 renal
[49] = test system: U251 CNS
[50] = test system: UACC-257 melanoma
[51] = test system: UO-31 renal
[52] = test system: CCRF-CEM leukemia
[53] = test system: HCC-2998 colon
[54] = test system: HCT-15 colon
[55] = test system: NCI-H23 lung
[56] = test system: NCI-H460 lung
[57] = test system: UACC-62 melanoma

Compound: O=c1c2cc(Br)cc(Br)c2[nH]c(=S)n1-c1ccc(N=Nc2ccc(O)c3cccnc23)cc1
- TGI [1]: > 100 µM
- TGI [2]: > 100 µM
- TGI [3]: > 100 µM
- TGI [4]: > 100 µM
- TGI [5]: > 100 µM
- TGI [6]: > 100 µM
- TGI [7]: > 100 µM
- TGI [8]: > 100 µM
- TGI [9]: > 100 µM
- TGI [10]: > 100 µM
- TGI [11]: > 100 µM
- TGI [12]: 41.6 µM
- TGI [13]: > 100 µM
- TGI [14]: > 100 µM
- TGI [15]: 34.5 µM
- TGI [16]: > 100 µM
- TGI [17]: > 100 µM
- TGI [18]: > 100 µM
- TGI [19]: > 100 µM
- TGI [20]: 43.2 µM
- TGI [21]: 25.9 µM
- TGI [22]: > 100 µM
- TGI [23]: > 100 µM
- TGI [24]: > 100 µM
- TGI [25]: > 100 µM
- TGI [26]: > 100 µM
- TGI [27]: 60.8 µM
- TGI [28]: 28.5 µM
- TGI [29]: > 100 µM
- TGI [30]: > 100 µM
- TGI [31]: > 100 µM
- TGI [32]: > 100 µM
- TGI [33]: > 100 µM
- TGI [34]: > 100 µM
- TGI [35]: 57.5 µM
- TGI [36]: > 100 µM
- TGI [37]: 31.3 µM
- TGI [38]: > 100 µM
- TGI [39]: > 100 µM
- TGI [40]: 29 µM
- TGI [41]: > 100 µM
- TGI [42]: > 100 µM
- TGI [43]: 61.2 µM
- TGI [44]: > 100 µM
- TGI [45]: > 100 µM
- TGI [46]: > 100 µM
- TGI [47]: > 100 µM
- TGI [48]: > 100 µM
- TGI [49]: 62.3 µM
- TGI [50]: > 100 µM
- TGI [51]: > 100 µM

Compound: CC1=NN(C(=O)CC(=O)Nc2cccc(C)c2)C(=O)C1N=Nc1ccc(S(=O)(=O)CCOS(=O)(=O)O)cc1 (configuration not stated)
- TGI [1]: 12.9 µM
- TGI [2]: 37.1 µM
- TGI [3]: 50.6 µM
- TGI [4]: 17.1 µM
- TGI [5]: 2.96 µM
- TGI [52]: > 100 µM
- TGI [6]: 8.42 µM
- TGI [7]: > 100 µM
- TGI [8]: > 64.6 µM
- TGI [53]: 5.51 µM
- TGI [9]: 12.6 µM
- TGI [54]: 4.83 µM
- TGI [10]: > 100 µM
- TGI [11]: 25.9 µM
- TGI [12]: 17.9 µM
- TGI [13]: 15.3 µM
- TGI [14]: 11.5 µM
- TGI [15]: 12.4 µM
- TGI [16]: > 100 µM
- TGI [17]: 13.9 µM
- TGI [18]: 5.47 µM
- TGI [19]: 17.3 µM
- TGI [20]: 13.6 µM
- TGI [21]: 13.4 µM
- TGI [22]: 14.8 µM
- TGI [24]: 0.902 µM
- TGI [25]: > 31.7 µM
- TGI [26]: 6.79 µM
- TGI [55]: 24.6 µM
- TGI [56]: 11.8 µM
- TGI [27]: 0.835 µM
- TGI [28]: 14.9 µM
- TGI [29]: 27 µM
- TGI [30]: 66.2 µM
- TGI [31]: > 22.4 µM
- TGI [32]: 11.2 µM
- TGI [33]: > 100 µM
- TGI [34]: 22 µM
- TGI [35]: 28 µM
- TGI [36]: 11.3 µM
- TGI [37]: 6.49 µM
- TGI [38]: 2.67 µM
- TGI [39]: 19.7 µM
- TGI [40]: 2.88 µM
- TGI [41]: 17 µM
- TGI [42]: 5.51 µM
- TGI [43]: 22.3 µM
- TGI [44]: 19.7 µM
- TGI [45]: > 100 µM
- TGI [46]: 14.5 µM
- TGI [47]: > 49.5 µM
- TGI [48]: 26.2 µM
- TGI [49]: 13.6 µM
- TGI [50]: 23.1 µM
- TGI [57]: 9.34 µM
- TGI [51]: 10.5 µM
